Experimental data: patent US20130303557A1, “PHARMACEUTICAL COMPOSITIONS AND METHODS OF TREATING DRY EYE DISORDERS” (PFIZER INC., priority 2010, published 2013)

What was measured:
Format in all cases: in vivo
dry-induced C57 mice = assay: Induced dry eye mouse model (scopolamine plus fans), tear production; conditions: at 2 days of treatment; 1 μl once a day, Formulations 3 and 5; FIGS. 7 and 8
Description: An injection was prepared comprising 2.5 mg/ml scopolamine (sigma) in injectable saline (1-1.5 ml per animal). In normal C57 mice (200-250) ul of scopolamine was injected four times every 2.5 hrs in alternating hind quarters. The mice were placed in special cages (with holes in front and back) and placed in a hood. Fans were placed in front of each cage, and turned on for 16 hours over night for five days. Measurements were taken daily.
As with Examples 4 and 5 above, animals were treated with drug or vehicle at 1 μl, once a day for 2 weeks.

MRL/Ipr dry eye mice [1] = assay: Dose response of CP690550 on tear production in MRL/Ipr mice (Formulations 1, 3 and 4); conditions: at 2 days after treatment, all comparisons, FIGS. 4-6
Description: As with Example 4 above, vehicle-treated normal C57black/6 and MRL/Ipr dry eye mice (5-10 mice/group) were used as normal control and dry eye control, respectively. […] Treatment for Formulation 1 was carried for two weeks, at […], twice a day.

MRL/Ipr dry eye mice [2] = assay: Comparative tear production, CP-690550 versus Restasis, in MRL/Ipr dry eye mice (phenol red thread); conditions: CP-690550 0.01% vs Restasis (cyclosporine 0.05%), 2 μl twice a day for 30 days; FIG. 3
Description: Tear measurement was done using phenol red impregnated thread (Quick Zone®) and baseline measurement was performed before each drug application. Drugs or vehicles were applied at 2 μl, two times a day.
Vehicle-treated normal C57black/6 and MRL/Ipr dry eye mice were used as normal control and dry eye control, respectively.
Control animals included normal C57Black/6 mice, and MRL/Ipr mice, treated with PBS vehicle and MRL/Ipr mice treated with Refresh Endura® (vehicle for Restasis) (5-10 mice/group).

For `C[C@@H]1CCN(C(=O)CC#N)C[C@@H]1N(C)c1ncnc2[nH]ccc12` [CP690550, 3-{(3R,4R)-4-Methyl-3-[methyl-(7H-pyrrolo[2,3-d]pyrimidin-4-yl)-amino]-piperidin-1-yl}-3-oxo-propionitrile], the “increase in tear production” value (dry-induced C57 mice) was “significant increase in tear production”, the “improvement in tear production” value (MRL/Ipr dry eye mice [1]) was “significant improvement in tear production” and the “response rate as compared to Restasis” value (MRL/Ipr dry eye mice [2]) was “much faster response rate as compared to Restasis®”. For the same compound, the “volume of tear production compared with Restasis” value (MRL/Ipr dry eye mice [2]) was “significant improvement in the volume of tear production over Restasis®”.
